Measured values taken from US20240100176A1, “HUMAN INTERLEUKIN-4 RECEPTOR ALPHA ANTIBODY GLUCOCORTICOID CONJUGATES” (Eli Lilly and Company, priority 2022, published 2024).
pIC50: −log10 of the molar value.

Key:
Format in all cases: cell-based
[1] = test system: IL-4 induced proliferation of human primary B cells; assay: Inhibition of IL-4 induced B cell proliferation
Protocol: Human PBMCs were isolated from human blood samples by standard Ficoll-Paque™ plus (GE […]) density gradient centrifugation methods, and primary B cells were isolated from the PBMC suspension by negative selection with EasySep™ Human Naïve B cell Enrichment kit according to the manufacturer's protocol ([…]™ Technologies). […] Cells were stimulated with Human CD40/TNFRSF5 Antibody (200 ng/mL; R&D SYSTEMS) and with IL-4 recombinant human protein (5 ng/mL; R&D SYSTEMS) for 2 days at 37° C. and 5% CO2. Cells were then pulsed with [^3H]-thymidine ([…] thymidine/well; PerkinElmer®) for 18 hours at 37° C. and level of [^3H]-thymidine incorporation was measured by a Microplate Counter (MicroBeta 2; PerkinElmer®) and expressed as a […] (CCPM). Statistical analysis was performed using GraphPad Prism 9 and curves were generated by fitting a sigmoidal curve of the log (Ab concentration) vs. the mean percent inhibition of CCPM compared to CD40 stimulation alone from two donors.

[2] = test system: anti-CD40 induced proliferation of human primary B cells; assay: Glucocorticoid receptor mediated inhibition of anti-CD40 induced B cell proliferation
Protocol: Human PBMCs were isolated from human blood samples by standard Ficoll-Paque™ plus (GE […]) density gradient centrifugation methods, and primary B cells were isolated from the PBMC suspension by negative selection with EasySep™ Human Naïve B cell Enrichment kit according to the manufacturer's protocol ([…]™ Technologies). […] Cells were then pulsed with [^3H]-thymidine ([…] thymidine/well; PerkinElmer®) for 18 hours at 37° C. and level of [^3H]-thymidine incorporation was measured by a Microplate Counter (MicroBeta 2; PerkinElmer®) and expressed as a […] (CCPM). Statistical analysis was performed using GraphPad Prism 9 and curves were generated by fitting a sigmoidal curve of the log(Ab concentration) vs. the mean percent inhibition of CCPM compared to no stimulation from 2 donors.

[3] = test system: GM-CSF secretion from Human PBMCs; assay: Inhibition of cytokine secretion from human PBMCs; details: PBMC; PHA-M/PMA stimulated human PBMCs, 48 hours; 100 nM
Protocol: (§1) Example 4h. Inhibition of Cytokine secretion from Human PBMCs: PBMCs were isolated from Ficoll-layered blood centrifuged at 400×g for 30 minutes at room temperature. The PBMC layer was washed with sterile RPMI-1640 media (Corning® Cat. #10041CV) and centrifuged at 1500 rpm for 5 min, at 4° C. Red blood cells are lysed by resuspending the cell pellet in 5 mL of ACK Lysing Buffer (GIBCO Cat. #A1049201) and incubating at room temperature for 5 minutes. […] The plates are incubated at 37° C. with 5% CO2 for 48 hours. After the incubation period, plates are centrifuged at 2000 rpm for 1 min and the top 100 μL of the supernatants are removed and stored at −80° C., until ready to perform cytokine detection. Cytokine release is detected using the U-PLEX Custom Biomarker [Human] Multiplex Assay (MESO SCALE DISCOVERY), according to the manufacturer's protocol. Statistical analysis is performed using GraphPad Prism 9. Data was presented as sigmoidal curve fits of the mean of the individual donors' percent inhibition for each cytokine (n=2) vs. the log(Ab concentration) and statistical analysis is performed using GraphPad Prism 9.

[4] = test system: IL-5 secretion from Human PBMCs; assay: Inhibition of cytokine secretion from human PBMCs; details: PBMC; PHA-M/PMA stimulated human PBMCs, 48 hours; 100 nM
Protocol: as §1

[5] = test system: MDC secretion from Human PBMCs; assay: Inhibition of cytokine secretion from human PBMCs; details: PBMC; PHA-M/PMA stimulated human PBMCs, 48 hours; 100 nM
Protocol: as §1

For `Cc1ccc(OCc2cccc(N)c2)c(F)c1[C@H]1O[C@@H]2C[C@H]3[C@@H]4CCC5=CC(=O)C=C[C@]5(C)[C@H]4[C@@H](O)C[C@]3(C)[C@]2(C(=O)CO)O1` (single isomer, unassigned) [GC1], which inhibition at 0.06667 µM ([1]; Homo sapiens, B-cell, IL-4 induced, 66.67 nM) is on record?
The inhibition at 0.06667 µM was 25.7%.

What about the “Inhibition of IL-4 induced B cell proliferation (in words)” value ([1]; compared to the isotype control) of the same compound?
The value was “no significant inhibition was observed”.

And the pIC50 ([2]; anti-CD40 (200 ng/mL) induced, no IL-4)?
Its pIC50 is 8.43.

And the inhibition at 0.1 µM ([2]; read-out: Inhibition of B cell proliferation at 100 nM % inhibition, anti-CD40 induced, 100 nM)?
The inhibition at 0.1 µM was 66.5%.

And the inhibition at 0.1 µM [3]?
The inhibition at 0.1 µM was 90.8%.

What about the inhibition at 0.1 µM [4] of the same compound?
The inhibition at 0.1 µM was 97.4%.

And the inhibition at 0.1 µM [5]?
The inhibition at 0.1 µM was 96.1%.
